The assay concerns B16F1 melanoma cells. As to the kind of experiment: Melanoma mouse model, injection into the tumor. It counts as in vivo, C57BL/6NRj mice. The following applies: 50 μl into the tumor on two consecutive days; groups of 10 mice; FIG. 2. The protocol:
The following compositions were prepared as described in Example 1 in aqueous acetic acid/acetate buffer, pH 5.2. The following chitosan was used in this study: chitosan medium molecular weight, 330 kDa, DAA 86% (manufacturer Chitinor, Norway). • 1: LTX-401, 5 mg/ml (free base) • 2: Chitosan, 1.2% (w/w) • 3: LTX-401, 5 mg/ml (free base) and chitosan, 1.2% (w/w) • 4: Control: aqueous acetic acid/acetate buffer
Immunocompetent C57BL/6NRj mice (JanVier Labs, France) were inoculated with B16F1 melanoma cells on day 0 by subcutaneous injection of 5×10^4 tumor cells per mouse/50 μl RPMI-1640 in the skin on the abdomen of the animal. The mice were divided into 4 groups of 10 mice each, and treatment was initiated when the tumors were palpable and reached the desired size of approximately 5 mm in diameter (40-80 mm^3). The respective compositions 1~4 were administered by injection into the tumor (50 μl) on two consecutive days (day 11 and 12 or day 12 and 13 or day 13 and 14, depending on tumor growth). The mice were monitored during the study by measuring the tumors and weighing the animals regularly. The tumor volume was measured using an electronic caliper and expressed as volume V=(L×W×W)/2, where W is the tumor width and L is the tumor length. […]

The record followed here is US20260199423A1, “COMPOSITIONS COMPRISING AN ONCOLYTIC PEPTIDE AND CHITOSAN” (LYTIX BIOPHARMA AS, priority 2022, published 2026).

The compound `NCCNC(=O)C(CN)(CCCc1ccccc1)CCCc1ccccc1` [LTX-401] showed a Survival of 60%.
